Remaining binding data for 1 compound are collected here from article PMC7206119, “RIP1 inhibition blocks inflammatory diseases but not tumor growth or metastases” (Cell Death and Differentiation, 2019).

Among the targets are SRPK3 (Homo sapiens, UniProt Q9UPE1); RET (Homo sapiens, UniProt P07949); SGK3 (Homo sapiens, UniProt Q96BR1); CASK (Homo sapiens, UniProt O14936); SLK (Homo sapiens, UniProt Q9H2G2); TBK1 (Homo sapiens, UniProt Q9UHD2); EGFR (Homo sapiens, UniProt P00533); MARK2 (Homo sapiens, UniProt Q7KZI7); EGFR(G719S) (Homo sapiens, UniProt P00533, G719S); EPHA7 (Homo sapiens, UniProt Q15375); LYN (Homo sapiens, UniProt P07948); ZAP70 (Homo sapiens, UniProt P43403); MET(M1250T) (Homo sapiens, UniProt P08581, M1250T); STK35 (Homo sapiens, UniProt Q8TDR2); CDK3 (Homo sapiens, UniProt Q00526); EPHB3 (Homo sapiens, UniProt P54753).

What all share (assay): biochemical
Parameters in all cases: DiscoverX kinase panel, active-site competition binding (KINOMEscan type), percent of control at one concentration
Conditions in all cases: competition binding, percent of control

The next assay has as its target T1, VEGFR2 (Homo sapiens, UniProt P35968).
T1 construct: gene KDR

Assay [1] deals with T2, ABL1(F317I)-phosphorylated (Homo sapiens, UniProt P00519, F317I).
T2 construct: phosphorylated

A further assay deals with T3, NDR1 (Homo sapiens, UniProt Q15208).
T3 construct: gene STK38

For the next assay, the target named is T4, MST4 (Homo sapiens, UniProt Q9P289).
T4 construct: gene STK26

The target of the next assay is T5, DCAMKL2 (Homo sapiens, UniProt Q8N568).
T5 construct: gene DCLK2

Each structure is given as a SMILES string.

Sequence of SLK (Q9H2G2 whole entry): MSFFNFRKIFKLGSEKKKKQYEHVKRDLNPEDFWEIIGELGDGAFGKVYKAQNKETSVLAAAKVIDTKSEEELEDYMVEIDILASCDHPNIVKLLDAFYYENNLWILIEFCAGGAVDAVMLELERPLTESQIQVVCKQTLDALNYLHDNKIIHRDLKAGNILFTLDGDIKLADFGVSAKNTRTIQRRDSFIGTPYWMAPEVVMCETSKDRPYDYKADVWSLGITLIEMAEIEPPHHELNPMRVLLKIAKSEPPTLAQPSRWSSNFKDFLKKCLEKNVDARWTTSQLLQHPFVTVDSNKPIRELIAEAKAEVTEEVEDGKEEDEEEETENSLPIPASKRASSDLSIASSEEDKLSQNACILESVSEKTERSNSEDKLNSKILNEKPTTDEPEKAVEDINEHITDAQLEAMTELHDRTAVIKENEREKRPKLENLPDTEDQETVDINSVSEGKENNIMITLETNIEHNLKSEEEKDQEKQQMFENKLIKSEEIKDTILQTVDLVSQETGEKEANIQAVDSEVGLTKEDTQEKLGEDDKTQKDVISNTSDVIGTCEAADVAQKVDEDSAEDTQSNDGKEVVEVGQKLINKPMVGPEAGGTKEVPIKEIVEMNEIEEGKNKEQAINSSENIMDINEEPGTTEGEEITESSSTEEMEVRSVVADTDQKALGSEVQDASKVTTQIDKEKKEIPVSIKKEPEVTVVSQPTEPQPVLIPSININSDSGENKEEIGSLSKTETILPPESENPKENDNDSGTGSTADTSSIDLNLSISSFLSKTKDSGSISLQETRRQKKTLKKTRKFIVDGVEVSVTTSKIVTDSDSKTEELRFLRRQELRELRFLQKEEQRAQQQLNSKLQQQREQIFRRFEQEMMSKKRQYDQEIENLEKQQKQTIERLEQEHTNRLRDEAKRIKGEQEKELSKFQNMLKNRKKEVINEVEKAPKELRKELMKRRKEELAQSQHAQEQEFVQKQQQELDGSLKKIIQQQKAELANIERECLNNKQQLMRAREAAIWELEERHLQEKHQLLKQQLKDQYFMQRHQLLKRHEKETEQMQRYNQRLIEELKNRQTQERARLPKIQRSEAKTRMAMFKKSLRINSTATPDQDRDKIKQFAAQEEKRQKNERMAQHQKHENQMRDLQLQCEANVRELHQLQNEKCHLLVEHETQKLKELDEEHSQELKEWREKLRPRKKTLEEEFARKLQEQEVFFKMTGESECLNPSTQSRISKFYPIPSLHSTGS
Sequence of MARK2 (Q7KZI7 whole entry): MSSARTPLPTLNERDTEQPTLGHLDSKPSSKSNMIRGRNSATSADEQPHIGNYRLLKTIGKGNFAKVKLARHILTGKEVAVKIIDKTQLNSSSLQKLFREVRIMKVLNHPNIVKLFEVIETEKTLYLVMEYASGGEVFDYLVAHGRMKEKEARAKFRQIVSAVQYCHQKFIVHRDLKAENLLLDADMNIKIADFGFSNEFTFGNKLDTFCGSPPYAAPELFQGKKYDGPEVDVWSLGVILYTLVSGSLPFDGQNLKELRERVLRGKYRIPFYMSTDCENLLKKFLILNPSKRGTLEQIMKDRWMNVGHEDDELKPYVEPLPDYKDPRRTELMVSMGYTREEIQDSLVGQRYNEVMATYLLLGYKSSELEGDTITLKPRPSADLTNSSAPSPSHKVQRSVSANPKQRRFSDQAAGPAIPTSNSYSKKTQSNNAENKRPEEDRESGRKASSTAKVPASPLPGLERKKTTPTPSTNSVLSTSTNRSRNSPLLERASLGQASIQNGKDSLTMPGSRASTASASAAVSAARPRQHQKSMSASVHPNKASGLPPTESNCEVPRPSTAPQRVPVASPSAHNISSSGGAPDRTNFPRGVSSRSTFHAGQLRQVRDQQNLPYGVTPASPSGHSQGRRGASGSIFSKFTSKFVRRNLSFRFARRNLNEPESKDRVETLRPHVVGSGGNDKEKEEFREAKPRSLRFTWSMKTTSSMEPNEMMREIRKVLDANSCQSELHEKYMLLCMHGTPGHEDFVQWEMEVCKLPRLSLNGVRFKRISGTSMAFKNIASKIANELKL
Sequence of MET(M1250T) (P08581 whole entry M1250T): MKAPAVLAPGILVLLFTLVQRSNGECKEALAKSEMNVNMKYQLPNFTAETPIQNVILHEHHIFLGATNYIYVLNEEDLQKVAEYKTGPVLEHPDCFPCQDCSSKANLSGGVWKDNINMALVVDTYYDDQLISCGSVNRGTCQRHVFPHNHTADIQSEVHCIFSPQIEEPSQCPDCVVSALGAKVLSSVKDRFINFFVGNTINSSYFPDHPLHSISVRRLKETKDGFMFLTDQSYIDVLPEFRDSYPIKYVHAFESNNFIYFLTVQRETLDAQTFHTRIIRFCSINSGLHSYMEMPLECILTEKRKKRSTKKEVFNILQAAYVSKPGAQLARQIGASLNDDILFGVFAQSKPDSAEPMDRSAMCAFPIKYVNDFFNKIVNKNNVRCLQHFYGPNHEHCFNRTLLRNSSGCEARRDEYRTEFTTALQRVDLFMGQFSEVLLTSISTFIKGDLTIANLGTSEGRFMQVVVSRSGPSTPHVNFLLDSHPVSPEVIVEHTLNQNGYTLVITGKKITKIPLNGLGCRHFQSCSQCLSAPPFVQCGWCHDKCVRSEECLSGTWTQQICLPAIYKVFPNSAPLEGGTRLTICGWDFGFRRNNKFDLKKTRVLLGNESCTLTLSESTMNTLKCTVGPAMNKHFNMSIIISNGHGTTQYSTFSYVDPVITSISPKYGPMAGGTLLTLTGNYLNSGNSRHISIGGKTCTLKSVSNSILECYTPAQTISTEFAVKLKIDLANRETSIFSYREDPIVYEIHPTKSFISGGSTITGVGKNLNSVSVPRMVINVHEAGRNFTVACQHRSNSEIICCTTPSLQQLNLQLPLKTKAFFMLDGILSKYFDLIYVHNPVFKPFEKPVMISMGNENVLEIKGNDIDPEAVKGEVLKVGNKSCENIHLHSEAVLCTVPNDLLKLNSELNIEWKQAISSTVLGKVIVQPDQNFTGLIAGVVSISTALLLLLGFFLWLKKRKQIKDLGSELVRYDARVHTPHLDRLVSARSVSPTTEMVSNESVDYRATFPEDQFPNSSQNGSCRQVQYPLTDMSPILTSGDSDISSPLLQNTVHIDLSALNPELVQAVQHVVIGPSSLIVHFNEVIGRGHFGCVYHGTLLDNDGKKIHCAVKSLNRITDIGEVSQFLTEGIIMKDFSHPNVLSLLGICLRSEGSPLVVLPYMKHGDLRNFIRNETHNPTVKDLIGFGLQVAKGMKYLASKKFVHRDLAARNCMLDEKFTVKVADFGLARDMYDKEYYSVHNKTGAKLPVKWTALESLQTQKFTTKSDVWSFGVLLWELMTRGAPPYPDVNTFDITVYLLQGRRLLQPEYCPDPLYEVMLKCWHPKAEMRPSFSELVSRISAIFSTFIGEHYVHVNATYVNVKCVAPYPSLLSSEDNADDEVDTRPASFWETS
Sequence of CDK3 (Q00526 whole entry): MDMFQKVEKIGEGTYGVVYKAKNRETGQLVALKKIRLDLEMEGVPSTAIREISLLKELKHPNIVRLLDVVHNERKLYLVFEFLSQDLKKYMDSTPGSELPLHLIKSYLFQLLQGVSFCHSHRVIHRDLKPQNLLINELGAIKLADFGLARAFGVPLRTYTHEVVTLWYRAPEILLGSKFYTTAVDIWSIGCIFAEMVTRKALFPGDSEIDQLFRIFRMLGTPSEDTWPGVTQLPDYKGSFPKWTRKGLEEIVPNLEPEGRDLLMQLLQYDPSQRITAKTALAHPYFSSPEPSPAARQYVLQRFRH
Sequence of EPHA7 (Q15375 whole entry): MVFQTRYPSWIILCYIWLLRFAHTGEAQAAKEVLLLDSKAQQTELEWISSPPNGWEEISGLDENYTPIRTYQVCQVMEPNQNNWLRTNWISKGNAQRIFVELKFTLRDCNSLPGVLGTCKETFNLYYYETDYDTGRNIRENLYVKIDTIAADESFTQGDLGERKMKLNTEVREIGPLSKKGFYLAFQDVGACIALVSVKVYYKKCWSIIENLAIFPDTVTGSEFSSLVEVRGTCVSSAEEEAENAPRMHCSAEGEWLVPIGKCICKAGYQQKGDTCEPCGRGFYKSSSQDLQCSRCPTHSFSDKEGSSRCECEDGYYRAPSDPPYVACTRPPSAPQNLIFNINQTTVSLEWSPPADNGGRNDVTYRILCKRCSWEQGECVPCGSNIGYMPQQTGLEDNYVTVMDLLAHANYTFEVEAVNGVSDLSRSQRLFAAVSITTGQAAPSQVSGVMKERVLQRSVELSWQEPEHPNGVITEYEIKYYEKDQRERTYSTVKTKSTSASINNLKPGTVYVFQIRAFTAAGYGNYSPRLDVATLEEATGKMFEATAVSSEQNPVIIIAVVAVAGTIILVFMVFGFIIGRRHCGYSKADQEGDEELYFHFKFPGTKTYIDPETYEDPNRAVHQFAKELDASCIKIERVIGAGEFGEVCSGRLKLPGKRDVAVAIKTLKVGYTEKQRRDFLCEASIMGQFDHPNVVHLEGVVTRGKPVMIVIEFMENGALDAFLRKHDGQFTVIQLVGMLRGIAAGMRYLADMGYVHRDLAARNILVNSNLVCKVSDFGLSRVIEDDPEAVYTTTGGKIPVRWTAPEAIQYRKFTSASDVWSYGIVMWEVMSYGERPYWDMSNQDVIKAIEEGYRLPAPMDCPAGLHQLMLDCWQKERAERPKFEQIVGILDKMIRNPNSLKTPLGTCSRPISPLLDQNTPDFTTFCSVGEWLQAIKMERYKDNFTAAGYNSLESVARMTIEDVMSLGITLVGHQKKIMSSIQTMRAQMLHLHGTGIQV

In the case of `COc1cc2c(cn1)N(C)C(=O)[C@@H](NC(=O)c1nc3n(n1)[C@H](c1ccccc1)CC3)CC2` [GNE684, (S)-N-((S)-7-methoxy-1-methyl-2-oxo-2,3,4,5-tetrahydro-1H-pyrido[3,4-b]azepin-3-yl)-5-phenyl-6,7-dihydro-5H-pyrrolo[1,2-b][1,2,4]triazole-2-carboxamide], the remaining binding at 10 µM on SRPK3 turned out to be 100%; at RET, 98%; at SGK3, 93%; on CASK it was 72%; at VEGFR2 it was 93%; on SLK, 100%. Also, the remaining binding at 10 µM in [1] turned out to be 100%; on TBK1, 94%; at EGFR it was 100%; at MARK2, 100%; on NDR1 it was 79%; at EGFR(G719S), 100%. For the same compound, the remaining binding at 10 µM was 100% on EPHA7; 94% at LYN; 100% on ZAP70; 100% at MET(M1250T); 100% on MST4; 95% at DCAMKL2. Further, the remaining binding at 10 µM at STK35 was 100%; at CDK3, 74%; at EPHB3 it was 100%.
